Reference: ChEMBL document CHEMBL5506059, “Cyanomethylquinolones as a New Class of Potential Multitargeting Broad-Spectrum Antibacterial Agents” (J Med Chem, 2024)
Converted amounts (≈) assume the structure as drawn.

Columns and labels:
Format in all cases: functional
Staphylococcus aureus [1] = experiment: Antibacterial activity against methicillin resistant Staphylococcus aureus clinical isolate assessed as inhibition of bacterial growth incubated for 24 hrs
Staphylococcus aureus [2] = experiment: Antibacterial activity against Staphylococcus aureus clinical isolate assessed as inhibition of bacterial growth incubated for 24 hrs
Staphylococcus aureus [3] = experiment: Antibacterial activity against Staphylococcus aureus ATCC 25923 assessed as inhibition of bacterial growth incubated for 24 hrs
Staphylococcus aureus [4] = experiment: Antibacterial activity against Staphylococcus aureus ATCC 29213 assessed as inhibition of bacterial growth incubated for 24 hrs
Enterococcus faecalis = experiment: Antibacterial activity against Enterococcus faecalis clinical isolate assessed as inhibition of bacterial growth incubated for 24 hrs
Klebsiella pneumoniae = experiment: Antibacterial activity against Klebsiella pneumoniae clinical isolate assessed as inhibition of bacterial growth incubated for 24 hrs
Escherichia coli [5] = experiment: Antibacterial activity against Escherichia coli clinical isolate assessed as inhibition of bacterial growth incubated for 24 hrs
Escherichia coli [6] = experiment: Antibacterial activity against Escherichia coli ATCC 25922 assessed as inhibition of bacterial growth incubated for 24 hrs
Pseudomonas aeruginosa [7] = experiment: Antibacterial activity against Pseudomonas aeruginosa clinical isolate assessed as inhibition of bacterial growth incubated for 24 hrs
Pseudomonas aeruginosa [8] = experiment: Antibacterial activity against Pseudomonas aeruginosa ATCC 27853 assessed as inhibition of bacterial growth incubated for 24 hrs
Acinetobacter baumannii = experiment: Antibacterial activity against Acinetobacter baumannii clinical isolate assessed as inhibition of bacterial growth incubated for 24 hrs

| SMILES | MIC (Staphylococcus aureus [1]) [µg/mL] | MIC (Staphylococcus aureus [2]) [µg/mL] | MIC (Staphylococcus aureus [3]) [µg/mL] | MIC (Staphylococcus aureus [4]) [µg/mL] | MIC (Enterococcus faecalis) [µg/mL] | MIC (Klebsiella pneumoniae) [µg/mL] | MIC (Escherichia coli [5]) [µg/mL] | MIC (Escherichia coli [6]) [µg/mL] | MIC (Pseudomonas aeruginosa [7]) [µg/mL] | MIC (Pseudomonas aeruginosa [8]) [µg/mL] | MIC (Acinetobacter baumannii) [µg/mL] |
| --- | --- | --- | --- | --- | --- | --- | --- | --- | --- | --- | --- |
| CC(C)=CCn1cc(C(=O)O)c(=O)c2cc(F)c(CC#N)cc21 | 1 (≈ 3.18 µM) | 256 (≈ 814 µM) | 0.25 (≈ 0.795 µM) | 16 (≈ 50.9 µM) | 128 (≈ 407 µM) | 0.5 (≈ 1.59 µM) | 256 (≈ 814 µM) | 0.5 (≈ 1.59 µM) | 0.5 (≈ 1.59 µM) | 2 (≈ 6.36 µM) | 256 (≈ 814 µM) |
| O=C(O)Cc1cc2c(cc1F)c(=O)c(C(=O)O)cn2Cc1ccccc1 | 16 (≈ 45 µM) | 32 (≈ 90.1 µM) | 16 (≈ 45 µM) | 64 (≈ 180 µM) | 32 (≈ 90.1 µM) | 4 (≈ 11.3 µM) | 64 (≈ 180 µM) | 8 (≈ 22.5 µM) | 32 (≈ 90.1 µM) | 8 (≈ 22.5 µM) | 64 (≈ 180 µM) |
| C=CCn1cc(C(=O)O)c(=O)c2cc(F)c(CC#N)cc21 | 0.5 (≈ 1.75 µM) | 2 (≈ 6.99 µM) | 0.5 (≈ 1.75 µM) | 4 (≈ 14 µM) | 16 (≈ 55.9 µM) | 1 (≈ 3.49 µM) | 256 (≈ 894 µM) | 0.5 (≈ 1.75 µM) | 0.5 (≈ 1.75 µM) | 4 (≈ 14 µM) | 8 (≈ 27.9 µM) |
| N#CCc1cc2c(cc1F)c(=O)c(C(=O)O)cn2Cc1cc(F)ccc1F | 256 (≈ 688 µM) | 4 (≈ 10.7 µM) | 256 (≈ 688 µM) | 256 (≈ 688 µM) | 256 (≈ 688 µM) | 16 (≈ 43 µM) | 256 (≈ 688 µM) | 256 (≈ 688 µM) | 256 (≈ 688 µM) | 256 (≈ 688 µM) | 64 (≈ 172 µM) |
| N#CCc1cc2c(cc1F)c(=O)c(C(=O)O)cn2Cc1ccccn1 | 32 (≈ 94.9 µM) | 256 (≈ 759 µM) | 1 (≈ 2.96 µM) | 8 (≈ 23.7 µM) | 8 (≈ 23.7 µM) | 4 (≈ 11.9 µM) | 8 (≈ 23.7 µM) | 0.25 (≈ 0.741 µM) | 0.5 (≈ 1.48 µM) | 16 (≈ 47.4 µM) | 2 (≈ 5.93 µM) |
| CCCn1cc(C(=O)O)c(=O)c2cc(F)c(CC#N)cc21 | 1 (≈ 3.47 µM) | 4 (≈ 13.9 µM) | 0.25 (≈ 0.867 µM) | 4 (≈ 13.9 µM) | 32 (≈ 111 µM) | 1 (≈ 3.47 µM) | 8 (≈ 27.8 µM) | 2 (≈ 6.94 µM) | 0.5 (≈ 1.73 µM) | 2 (≈ 6.94 µM) | 32 (≈ 111 µM) |
| N#CCc1cc2c(cc1F)c(=O)c(C(=O)O)cn2CCN1CCOCC1 | 8 (≈ 22.3 µM) | 16 (≈ 44.5 µM) | 1 (≈ 2.78 µM) | 4 (≈ 11.1 µM) | 16 (≈ 44.5 µM) | 8 (≈ 22.3 µM) | 16 (≈ 44.5 µM) | 4 (≈ 11.1 µM) | 2 (≈ 5.57 µM) | 16 (≈ 44.5 µM) | 8 (≈ 22.3 µM) |
| O=C(O)Cc1cc2c(cc1F)c(=O)c(C(=O)O)cn2Cc1ccccc1Cl | 32 (≈ 82.1 µM) | 32 (≈ 82.1 µM) | 16 (≈ 41.1 µM) | 8 (≈ 20.5 µM) | 32 (≈ 82.1 µM) | 0.5 (≈ 1.28 µM) | 32 (≈ 82.1 µM) | 8 (≈ 20.5 µM) | 64 (≈ 164 µM) | 4 (≈ 10.3 µM) | 32 (≈ 82.1 µM) |
| Cc1ccc(Cn2cc(C(=O)O)c(=O)c3cc(F)c(CC#N)cc32)cc1 | 8 (≈ 22.8 µM) | 256 (≈ 731 µM) | 0.25 (≈ 0.714 µM) | 256 (≈ 731 µM) | 4 (≈ 11.4 µM) | 256 (≈ 731 µM) | 256 (≈ 731 µM) | 0.25 (≈ 0.714 µM) | 0.5 (≈ 1.43 µM) | 4 (≈ 11.4 µM) | 256 (≈ 731 µM) |
| CCn1cc(C(=O)O)c(=O)c2cc(F)c(CC(=O)O)cc21 | 64 (≈ 218 µM) | 64 (≈ 218 µM) | 16 (≈ 54.6 µM) | 32 (≈ 109 µM) | 0.5 (≈ 1.71 µM) | 1 (≈ 3.41 µM) | 8 (≈ 27.3 µM) | 8 (≈ 27.3 µM) | 8 (≈ 27.3 µM) | 2 (≈ 6.82 µM) | 16 (≈ 54.6 µM) |
| CCCCCCCCn1cc(C(=O)O)c(=O)c2cc(F)c(CC(=O)O)cc21 | 4 (≈ 10.6 µM) | 16 (≈ 42.4 µM) | 4 (≈ 10.6 µM) | 4 (≈ 10.6 µM) | 2 (≈ 5.3 µM) | 0.5 (≈ 1.32 µM) | 2 (≈ 5.3 µM) | 2 (≈ 5.3 µM) | 1 (≈ 2.65 µM) | 2 (≈ 5.3 µM) | 4 (≈ 10.6 µM) |
| Cn1cc(C(=O)O)c(=O)c2cc(F)c(CC#N)cc21 | 2 (≈ 7.69 µM) | 1 (≈ 3.84 µM) | 1 (≈ 3.84 µM) | 8 (≈ 30.7 µM) | 4 (≈ 15.4 µM) | 0.5 (≈ 1.92 µM) | 16 (≈ 61.5 µM) | 1 (≈ 3.84 µM) | 0.5 (≈ 1.92 µM) | 2 (≈ 7.69 µM) | 4 (≈ 15.4 µM) |
| N#CCc1cc2c(cc1F)c(=O)c(C(=O)O)cn2CC1CC1 | 0.5 (≈ 1.67 µM) | 256 (≈ 853 µM) | 0.25 (≈ 0.833 µM) | 1 (≈ 3.33 µM) | 64 (≈ 213 µM) | 2 (≈ 6.66 µM) | 1 (≈ 3.33 µM) | 0.25 (≈ 0.833 µM) | 0.25 (≈ 0.833 µM) | 1 (≈ 3.33 µM) | 0.25 (≈ 0.833 µM) |
| O=C(O)Cc1cc2c(cc1F)c(=O)c(C(=O)O)cn2Cc1ccccn1 | 128 (≈ 359 µM) | 64 (≈ 180 µM) | 16 (≈ 44.9 µM) | 64 (≈ 180 µM) | 16 (≈ 44.9 µM) | 8 (≈ 22.5 µM) | 128 (≈ 359 µM) | 32 (≈ 89.8 µM) | 64 (≈ 180 µM) | 8 (≈ 22.5 µM) | 64 (≈ 180 µM) |
